From the METLIN SMRT retention time set (Domingo-Almenara et al. 2019)

Assay: gradient 5% acetonitrile 3 min, to 50% in 2 min, to 85% in 15 min, held 3 min, 100 µL/min
Conditions: column: Zorbax Extend-C18 2.1 x 50 mm; eluents: water / acetonitrile, 0.1% formic acid
Summary of the method: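 Each retention time is based on an adduct peak selected computationally and verified by manual inspection. Measurements used HPLC–quadrupole time-of-flight mass spectrometry in positive and negative ionization mode on mixtures of ~100 pure standards. Chromatography ran on a Zorbax Extend-C18 column (2.1 × 50 mm, 1.8 μm) at 100 μL/min with water and acetonitrile, each containing 0.1% formic acid, and dead and dwell volumes of 40 μL and 900 μL.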

| SMILES | RP-LC retention time [s] |
| --- | --- |
| CSc1ccc(NC(=O)N2CCN(C3=CC4=NCC(C)N4C=N3)CC2)cc1 (stereo not drawn) | 638 |
| Cn1cc(C2=CCN(S(=O)(=O)c3cccc4nsnc34)CC2)c2cccnc21 | 893 |
| COc1ccc(N2CCN(C(=O)CN3C(=O)CCc4cc(Br)ccc43)CC2)cc1 | 829 |
| CCCNC(=O)c1cc(=O)[nH]c2ccc(F)cc12 | 635 |
| COc1cccc(NC(=O)C2CCCN2S(=O)(=O)c2cc3c(cc2C)NC(=O)CO3)c1 (stereo not drawn) | 722 |
| CCOC(=O)N1CCN(c2nc(F)c3c(c2F)S(=O)(=O)CCN3CC2CCCO2)CC1 (stereo not drawn) | 958 |
| Cc1ccc(S(=O)(=O)N2CCC(F)(c3nc(CC(C)C)no3)CC2)cc1F | 1200 |
| CC(O)(CNC(=O)C(=O)Nc1cccc(N2CCCCC2=O)c1)c1ccccc1 (stereo not drawn) | 668 |
| Cc1ccc(/C=C2\CNC/C(=C\c3ccc(C)cc3)C2=O)cc1 | 734 |
| CCCN1CCCCc2cc(C(=O)NCC(N)=O)sc21 | 686 |
| O=C(NCc1csc(-c2cccs2)n1)C1CCN(S(=O)(=O)c2ccc(Cl)s2)CC1 | 957 |
| O=C(Nc1nnc(-c2ccc3c(c2)CCCC3)o1)c1ccc([N+](=O)[O-])o1 | 918 |
| O=C(Cc1ccsc1)N1CCC([C@@H]2CNC[C@H]2CO)CC1 | 568 |
| COc1ccc(N2CCN(C(=O)c3ccc(-c4cccs4)nc3)CC2)cc1 | 852 |
| CCOC(=O)C(C)Oc1ccc2c(=O)c(Oc3ccccc3OCC)coc2c1 (stereo not drawn) | 971 |
| CC(C)C1c2nccn2CCCN1C(=O)CCn1cccn1 (stereo not drawn) | 574 |
| COc1cc([C@@H]2c3cc4c(cc3[C@H](O)[C@@H](CO)[C@@H]2C(=O)N2CCN(c3ccc(F)cc3)CC2)OCO4)cc(OC)c1OC | 720 |
| CC(C)NC(=O)c1c2c(nc3ccc(F)cc13)CCCC2 | 631 |
| COc1ccc(NC(=O)C2CCN(S(=O)(=O)c3c(C)[nH]c(C)c3C(=O)N3CCCC3)CC2)cc1 | 693 |
| CCC1CCCCN1CCCNC(=O)c1sc2nc3n(c(=O)c2c1C)CCC3 (stereo not drawn) | 598 |

| SMILES | RP-LC retention time [s] |
| --- | --- |
| CCOC(=O)c1ccc(NC(=O)Cc2csc3nc(-c4ccc(OC)c(OC)c4)cn23)cc1 | 756 |
| O=C(Nc1cccc(NC(=O)c2cccc(O)c2O)c1)c1cccc(O)c1O | 765 |
| CCC(=O)N1CCCN(C2=NS(=O)(=O)C(c3ccc(CC)cc3)=C2C)CC1 | 796 |
| Cc1cnn(CC(=O)N2CCC3(CC2)CC(C)(O)CCO3)c1 (stereo not drawn) | 603 |
| Cn1cc(S(=O)(=O)N2CCC(C(=O)Nc3cccc(C#N)c3)CC2)cc1C(=O)N1CCCC1 | 751 |
| CCN(CC)CCNC(=O)C1CCN(C2=NS(=O)(=O)C(c3ccc(C)c(C)c3)=C2C)CC1 | 666 |
| O=C(NC1CC1)c1ccc(OCC2CCCN(C(=O)c3ccc(F)c(F)c3)C2)cc1 (stereo not drawn) | 820 |
| COCCN1C(=O)CC[C@]2(C(=O)NCc3ccc(OC)cc3OC)CCCC[C@@H]12 | 698 |
| CCOc1ccc(-c2c(C)nn3c(C)c(C(=O)NCC4CCCN4CC)cnc23)cc1OCC (stereo not drawn) | 667 |
| O=C(CCc1csc(NC(=O)NC2CCCCC2)n1)NCc1ccc2c(c1)OCO2 | 718 |
| COc1ccc(-c2cc3c4nnc(SCC(=O)NCc5ccc(SC)cc5)n4ccn3n2)cc1 | 832 |
| CCOC(=O)c1c(C)oc2ncnc(Nc3ccc(OC)c(Cl)c3)c12 | 1270 |
| CCCCS(=O)(=O)N1CCC(N2CC(F)(F)C[C@H]2COc2cccnc2)CC1 | 682 |
| CCSc1nnc(NC(=O)C2CCN(S(=O)(=O)c3cn(CC)cn3)CC2)s1 | 715 |
| Cn1c(CNC(=O)C2CCC2)nc2c1CN(S(=O)(=O)Cc1ccc(Cl)cc1)CC2 | 586 |
| COCCn1c(CCCC(=O)NCc2ccc(C(C)C)cc2)nc2cccnc21 | 741 |
| O=C(CSc1ncccn1)N1CCCC1 | 591 |
| Cc1ccc2nc(-c3ccc(Cl)cc3)c(Nc3ccc(Cl)cc3)n2c1 | 831 |
| COc1ccc(-n2c(=O)n(C)c(=O)c3cc(C(=O)Nc4ccc5c(c4)OCO5)cnc32)cc1 | 841 |
| COc1cc2c(cc1OC)C(C(=O)NCc1cccnc1)C(c1ccc(SC)cc1)N(C)C2=O (stereo not drawn) | 630 |

Further lines, results first:

| RP-LC retention time [s] | SMILES |
| --- | --- |
| 629 | COCCc1noc(C2CN(C(=O)c3ccoc3)C2)n1 |
| 825 | CC(C)NC(=O)c1ccc(OCC2CCCN(C(=O)c3ccccc3)C2)cc1 (stereo not drawn) |
| 872 | O=c1c2ccccc2ncn1Cc1noc(Cc2ccc(Cl)cc2)n1 |
| 718 | CCc1cccc(NC(=O)Cn2c(CC)nc3c(c2=O)CN(Cc2ccccc2)CC3)c1 |
| 697 | Cn1cnc2cc(-c3noc(C4CC(=O)N(c5cccc(Cl)c5)C4)n3)ccc21 (stereo not drawn) |
| 705 | Cc1ccc(NC(=O)Cn2c(C(C)C)nc3c(c2=O)CCN(Cc2ccccc2)C3)c(C)c1 |
| 600 | CCOc1cccc(C2CC(c3ccc4c(c3)OCO4)=NC3(CCN(C(C)C)CC3)N2)c1O (stereo not drawn) |
| 1190 | CCCN1C(=O)c2cc(S(=O)(=O)N(C)Cc3ccccc3)ccc2Oc2cccnc21 |
| 1060 | COc1ccc(CCC(=O)N2CCc3cc(-c4csc(C)n4)ccc32)cc1 |
| 1130 | COC(=O)/C(=C1/OC(=O)C(c2ccccc2)=C1O)c1ccccc1 |
| 703 | Cc1ccc(C(O)CN2CCN(c3ccccc3)CC2)c(C)c1 (stereo not drawn) |
| 1150 | Cc1ccc(-c2nc(-c3cccc(-c4ccn[nH]4)c3)no2)c(C)c1 |
| 832 | O=C(Cn1c(=O)c2cc(C3CC3)nn2c2ncccc21)N1CCCc2ccccc21 |
| 898 | Cc1nn2c(CNS(=O)(=O)c3ccc(F)c(C)c3)c(-c3ccccc3)nc2s1 |
| 849 | CCOC(=O)N1CCN(C(=O)CSc2ncnc3c2cnn3-c2ccc(F)cc2)CC1 |
| 1250 | Cn1nccc1-c1cccc(-c2noc(-c3ccc(Cl)cc3)n2)c1 |
| 1140 | O=C(CCCc1ccccc1)N1CCCC1c1nc(-c2ccccc2Cl)no1 (stereo not drawn) |
| 593 | Cc1ccc2nc(NC3=NCN(CCO)CN3)nc(C)c2c1 |
| 1100 | COc1ccccc1-c1nnc(-c2ccc(C)c(S(=O)(=O)N3CCCCCC3)c2)o1 |
| 865 | CCC1Oc2ccc(Cl)cc2N(CC(=O)N2CCN(Cc3noc4ccccc34)CC2)C1=O (stereo not drawn) |
| 1340 | Cc1ccc(C)c(-c2cc3c(=O)n(Cc4nc(-c5cccc(Br)c5)no4)ncn3n2)c1 |
| 662 | COc1ccc(OC)c(NC(=O)NCC(c2cccnc2)c2c[nH]c3ccccc23)c1 (stereo not drawn) |
| 617 | CCN1CCC2(CC1)OC(=O)C(C)=C2C(=O)NCCc1ccccc1 |
| 1150 | CCn1c(=O)c2cc(C(=O)N3CCC(Cc4ccccc4)CC3)nn2c2ccccc21 |

| RP-LC retention time [s] | SMILES |
| --- | --- |
| 853 | CCOC(=O)Cc1ccc(NC(=O)NC2CCN(c3ccc(F)c(C)c3)C2=O)cc1 (stereo not drawn) |
| 768 | Cc1cccc(NC(=O)CN2C(=O)CC(C)S(=O)(=O)c3ccccc32)c1 (stereo not drawn) |
| 582 | Cc1noc([C@@H]2CN(Cc3cn[nH]c3-c3ccccc3)C[C@H]2CO)n1 |
| 899 | CCCS(=O)(=O)NCc1ccc2c(c1)CCN2C(=O)c1cccc(C)c1 |
| 645 | CCC1CN2C=Nc3oc(C)c(C(=O)NCCc4ccc(OC)c(OC)c4)c3C2=N1 (stereo not drawn) |
| 659 | CCc1ccccc1NC(=O)Cn1c(N2CCCC2)nc(C)cc1=O |
| 608 | CS(=O)(=O)N1CCN(C(=O)c2coc(NC(=O)c3ccccc3)n2)CC1 |
| 822 | Cc1noc2nc(C)n(CC(=O)NC3CCCc4ccccc43)c(=O)c12 (stereo not drawn) |
| 776 | CCCn1nc(CNC(=O)c2sc(C)nc2C)c2ccccc21 |
| 694 | O=C(NCCCN1CCCC1)c1cccc(N2CCNC(c3ccccc3)C2)n1 (stereo not drawn) |
| 860 | COC(=O)c1c(-c2ccccc2)noc1N1CCOCC1 |
| 812 | CSc1ccc(CNC(=O)Cn2cc(-c3nnc(C)o3)c3ccccc32)cc1 |
| 788 | Cc1nc2cc(N3CC(C(=O)N4CCN(c5ccccc5F)CC4)CC3=O)ccc2o1 (stereo not drawn) |
| 714 | O=C(Nc1nnc(C2CCCCC2)o1)c1c[nH]c2ccccc12 |
| 959 | COc1ccccc1N1CCN(c2cc(SCC(=O)NCCCc3ccccc3)ncn2)CC1 |
| 869 | Cc1ccc(CNC(=O)c2ccc(-c3cccs3)nc2)o1 |
| 899 | Cc1ccccc1NC(=O)N1CCCC(C)(C(=O)NCc2ccc(F)cc2)C1 (stereo not drawn) |
| 711 | CCn1cc(C)c(C(=O)O)c1CC(=O)NCCN1CCCc2ccccc21 |
| 840 | COc1ccccc1-c1nnc(-c2cccc(S(=O)(=O)N(C)C)c2)o1 |
| 906 | Cc1ccc(N2CCC(NC(=O)Nc3cccc(C)c3C)C2=O)cc1C (stereo not drawn) |
| 971 | O=C(Nc1ccccc1C(F)(F)F)C1CCCN(c2ccc(=O)n(-c3cccc(Cl)c3)n2)C1 (stereo not drawn) |
| 524 | CCn1cc(S(=O)(=O)N[C@@H]2CN(Cc3ccccn3)C[C@H]2CN(C)C)cn1 |
| 940 | COc1ccc(C)cc1NC(=O)N1CCCC1c1nc(-c2ccccc2OC)no1 (stereo not drawn) |
| 1050 | Cc1ccccc1-c1cc2c(=O)n(Cc3nc(-c4ccccc4)no3)ccn2n1 |
